Consider eight compounds from patent US20170362228A1, “TETRAHYDRO-PYRIDO[3,4-b]INDOLE ESTROGEN RECEPTOR MODULATORS AND USES THEREOF” (Genentech, Inc., priority 2016, published 2017).

The target in assay [1] is T1, estrogen receptor alpha (ESR1) (Homo sapiens, UniProt P03372).
T1 construct: endogenous in cells; host or cells: MCF7 breast cancer cells
T1 sequence (P03372 1-595): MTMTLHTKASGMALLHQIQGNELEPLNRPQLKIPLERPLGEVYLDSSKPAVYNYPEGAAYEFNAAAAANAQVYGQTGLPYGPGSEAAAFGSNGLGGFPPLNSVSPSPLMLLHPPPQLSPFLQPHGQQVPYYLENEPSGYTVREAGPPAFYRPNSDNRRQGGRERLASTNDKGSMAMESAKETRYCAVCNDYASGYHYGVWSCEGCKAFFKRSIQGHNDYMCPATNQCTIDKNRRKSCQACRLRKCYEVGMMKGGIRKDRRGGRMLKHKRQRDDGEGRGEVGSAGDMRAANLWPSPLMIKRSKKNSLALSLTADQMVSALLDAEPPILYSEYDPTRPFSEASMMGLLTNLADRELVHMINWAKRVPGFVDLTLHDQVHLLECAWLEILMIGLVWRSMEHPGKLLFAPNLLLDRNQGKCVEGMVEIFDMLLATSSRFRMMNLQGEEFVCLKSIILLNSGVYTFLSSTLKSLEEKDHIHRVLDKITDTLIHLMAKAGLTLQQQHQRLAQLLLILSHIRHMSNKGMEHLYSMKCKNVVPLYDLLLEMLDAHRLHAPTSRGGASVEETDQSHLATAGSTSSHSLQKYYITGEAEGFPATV
The assay can be described thus: Breast Cancer Cell ERa High Content Fluorescence Imaging Degradation Assay (Example 901). It is filed as cell-based. To be noted: Table 1a; MCF7 breast cancer cells, 4 hours; plateau of the maximal effect; DMSO and Fulvestrant define 0% and 100% changes in ESR1. The method, then: MCF7 breast cancer cells were seeded on day 1 at a density of 10,000 cells per well in 384 well poly-lysine coated tissue culture plate (Greiner # T-3101-4), in 50 μL/well RPMI (phenol red free), 10% FBS (Charcoal stripped), containing L-glutamine. On day 2, compounds were prepared at 2 compound source concentrations: 100 μM and 1 μM (ultimately to give 2 overlapping titration curves), in a Labcyte low dead volume plate, 10 μL/well, and 10 μL of DMSO in designated wells for backfill, and 5 μM Fulvestrant (control compound) in designated wells. Compounds and controls were dispensed using a Labcyte Echo acoustic dispenser to dispense compounds with a predefined serial dilution (1.8×, 10 point, in duplicate) and appropriate backfill and control compounds (final total volume transferred was 417.5 nL and compound dispense volume ranges from 2.5 nL to 417.5 nL; 0.84% DMSO (v/v) final), ultimately producing a concentration range from 0.05 nM to 835 nM. Cell plates were incubated at 37° C., for 4 hours. Fixation and permeabilization were carried out using a Biotek EL406 plate washer and dispenser as follows. Cells were fixed by addition of 15 μL of 16% paraformaldehyde (Electron Microscopy Sciences #15710-S) directly to the 50 μL cell culture medium in each well using the peristaltic pump 5 μL cassette on a Biotek EL406 (final concentration of formaldehyde was 3.7% w/v). Samples were incubated 30 minutes. Well contents was aspirated and 50 μL/well of Phosphate Buffered Saline (PBS) containing 0.5% w/v bovine serum albumen, 0.5% v/v Triton X-100 (Antibody Dilution Buffer) was added to each well. Samples were incubated for 30 minutes. Well contents were aspirated and washed 3 times with 100 μL/well of PBS. Immunofluorescence staining of estrogen receptor alpha (ESR1) was carried out using a Biotek EL406 plate washer and dispenser as follows. The well supernatant was aspirated from the wells and 25 μL/well of anti-ESR1 mAb (F10) (Santa Cruz sc-8002) diluted 1:1000 in Antibody Dilution Buffer was dispensed. Samples were incubated for 2 hours at room temperature. Samples were washed 4 times with 100 μL/well of PBS. 25 uL/well of secondary antibody solution (Alexafluor 488 conjugate anti-mouse IgG (LifeTechnologies #A21202) diluted 1:1000 and Hoechst 33342 1 μg/ml diluted in Antibody Dilution Buffer) were dispensed into each well. Samples were incubated for 2 hours at room temperature. Samples were washed 3 times with 100 μL/well of PBS using a Biotek EL406. Quantitative fluorescence imaging of ESR1 was carried out using a Cellomics Arrayscan V (Thermo). Fluorescence images of the samples (Channel 1: XF53 Hoechst (DNA stain); Channel 2: XF53 FITC (ESR1 stain)) were acquired using a Cellomics VTI Arrayscan using the Bioapplication “Compartmental Analysis” using the auto-exposure (based on DMSO control wells) setting “peak target percentile” set to 25% target saturation for both channels. Channel 1 (DNA stain) was used to define the nuclear region (Circ). Measurements of “Mean_CircAvgIntCh2”, which is the Alexafluor 488 fluorescence intensity (ESR1) within the nuclear region, was measured on a per cell basis and averaged over all the measured cells. Data analysis was carried out using Genedata Screener Software, with DMSO and 5 nM Fulvestrant treated samples being used to define the 0% and 100% changes in ESR1. The “Robust Fit” method was used to define the inflexion point of curve (EC50) and the plateau of the maximal effect (Sinf). Degradation data for exemplary Formula I compounds is reported as ER-alpha MCF7 HCS Sinf(%) values in Table 1.

The next assay relates to MCF7 cells. The assay can be described thus: In vitro cell proliferation assays (Examples 902 and 903), MCF7. It is filed as cell-based. To be noted: Homo sapiens, MCF7, Table 1a, read-out: ER-alpha MCF7 HCS (EC50). The method, then:
Efficacy of estrogen receptor modulator compounds and chemotherapeutic compounds are measured by a cell proliferation assay employing the following protocol (Mendoza et al (2002) Cancer Res. 62:5485-5488).
The CellTiter-Glo® Luminescent Cell Viability Assay is a homogeneous method to determine the number of viable cells in culture based on quantitation of the ATP present, which signals the presence of metabolically active cells. The CellTiter-Glo® Assay is designed for use with multiwell plate formats, making it ideal for automated high-throughput screening (HTS), cell proliferation and cytotoxicity assays. The homogeneous assay procedure involves adding a single reagent (CellTiter-Glo® Reagent) directly to cells cultured in serum-supplemented medium. Cell washing, removal of medium or multiple pipetting steps are not required. The Cell Titer-Glo® Luminescent Cell Viability Assay, including reagents and protocol are commercially available (Promega Corp., Madison, Wis., Technical Bulletin TB288).
The assay assesses the ability of compounds to enter cells and inhibit cell proliferation. The assay principle is based on the determination of the number of viable cells present by quantitating the ATP present in a homogenous assay where addition of the Cell TiterGlo® reagent results in cell lysis and generation of a luminescent signal through the luciferase reaction. The luminescent signal is proportional to the amount of ATP present.
Procedure: Day 1—Seed Cell Plates (384-well black, clear bottom, microclear, TC plates with lid from Falcon #353962), Harvest cells, Seed cells at 1000 cells per 54 μl per well into 384 well Cell Plates for 3 days assay. Cell Culture Medium: RPMI or DMEM high glucose, 10% Fetal Bovine Serum, 2 mM L-Glutamine, P/S. Incubate 0/N (overnight) at 37° C., 5% CO2.
Day 2—Add Drug to Cells, Compound Dilution, DMSO Plates (serial 1:2 for 9 points). Add 20 μl of compound at 10 mM in the 2nd column of 96 well plate. Perform serial 1:2 across the plate (10 μl+20 μl 100% DMSO) for a total of 9 points using Precision Media Plates 96-well conical bottom polypropylene plates from Nunc (cat.#249946) (1:50 dilution). Add 147 μl of Media into all wells. Transfer 3 μl of DMSO+compound from each well in the DMSO Plate to each corresponding well on Media Plate using Rapidplate® (Caliper, a Perkin-Elmer Co.). For 2 drug combination studies, transfer one drug 1.5 μl of DMSO+compound from each well in the DMSO Plate to each corresponding well on Media Plate using Rapidplate. Then, transfer another drug 1.5 μl to the medium plate.
Drug Addition to Cells, Cell Plate (1:10 dilution): Add 6 μl of media+compound directly to cells (54 μl of media on the cells already). Incubate 3 days at 37° C., 5% CO2 in an incubator that will not be opened often.
Day 5—Develop Plates, Thaw Cell Titer Glo Buffer at room temperature: Remove Cell Plates from 37° C. and equilibrate to room temperature for about 30 minutes. Add Cell Titer-Glo® Buffer to Cell Titer-Glo® Substrate (bottle to bottle). Add 30 μl Cell Titer-Glo® Reagent (Promega cat.# G7572) to each well of cells. Place on plate shaker for about 30 minutes. Read luminescence on Analyst HT Plate Reader (half second per well).
Cell viability assays and combination assays: Cells were seeded at 1000-2000 cells/well in 384-well plates for 16 h. On day two, nine serial 1:2 compound dilutions were made in DMSO in a 96 well plate. The compounds were further diluted into growth media using a Rapidplate® robot (Zymark Corp., Hopkinton, Mass.). The diluted compounds were then added to quadruplicate wells in 384-well cell plates and incubated at 37° C. and 5% CO2. After 4 days, relative numbers of viable cells were measured by luminescence using Cell Titer-Glo® (Promega) according to the manufacturer's instructions and read on a Wallac Multilabel Reader® (PerkinElmer, Foster City). EC50 values were calculated using Prism® 4.0 software (GraphPad, San Diego). […]

Broadly, the EC50 is the concentration that produces a half-maximal response. Regarding `C[C@@H]1Cc2c([nH]c3ccccc23)[C@@H](c2c(F)cc([C@H](F)C3CN(CCCF)C3)cc2F)N1CC(C)(C)F` [Compound 103, (1R,3R)-1-(2,6-difluoro-4-((R)-fluoro(1-(3-fluoropropyl)azetidin-3-yl)methyl)phenyl)-2-(2-fluoro-2-methylpropyl)-3-methyl-2,3,4,9-tetrahydro-1H-pyrido[3,4-b]indole], the “ER-alpha MCF7 HCS (S inf)” value in assay [1] is −94.25%. Besides, the EC50 in the assay on MCF7 cells was determined as 0.12 nM.
As for `C[C@@H]1Cc2c([nH]c3ccccc23)[C@@H](c2c(F)cc(C(O)C3CN(CCCF)C3)cc2F)N1CC(F)(F)CO` (stereo partly drawn) [Compound 106, 3-((1R,3R)-1-(2,6-difluoro-4-((1-(3-fluoropropyl)azetidin-3-yl)(hydroxy)methyl)phenyl)-3-methyl-1,3,4,9-tetrahydro-2H-pyrido[3,4-b]indol-2-yl)-2,2-difluoropropan-1-ol], the “ER-alpha MCF7 HCS (S inf)” value in assay [1] is reported as −98.3%. Moreover, the half-maximal effective concentration (EC50) in the assay with MCF7 cells was determined as 0.035 nM.
As to `C[C@@H]1Cc2c([nH]c3ccccc23)[C@@H](c2c(F)cc(C(O)C3CN(CCCF)C3)cc2F)N1C[C@@](C)(F)CO` (stereo partly drawn) [Compound 107, (2R)-3-((1R,3R)-1-(2,6-difluoro-4-((1-(3-fluoropropyl)azetidin-3-yl)(hydroxy)methyl)phenyl)-3-methyl-1,3,4,9-tetrahydro-2H-pyrido[3,4-b]indol-2-yl)-2-fluoro-2-methylpropan-1-ol], in assay [1], the “ER-alpha MCF7 HCS (S inf)” value is listed as −94.23%. Further, the EC50 in the assay on MCF7 cells was 0.107 nM.
For `C[C@@H]1Cc2c([nH]c3ccccc23)[C@@H](c2c(F)cc(C(O)C3CN(CCCF)C3)cc2F)N1C[C@](C)(F)CO` (stereo partly drawn) [Compound 108, (2S)-3-((1R,3R)-1-(2,6-difluoro-4-((1-(3-fluoropropyl)azetidin-3-yl)(hydroxy)methyl)phenyl)-3-methyl-1,3,4,9-tetrahydro-2H-pyrido[3,4-b]indol-2-yl)-2-fluoro-2-methylpropan-1-ol], the “ER-alpha MCF7 HCS (S inf)” value in assay [1] is reported as −96.34%. Further, the EC50 in the assay with MCF7 cells amounted to 0.056 nM.
For the compound `C[C@@H]1Cc2c([nH]c3ccccc23)[C@@H](c2c(F)cc(C(O)C3CN(CCCF)C3)cc2F)N1CC(F)(F)F` (stereo partly drawn) [Compound 109, (3,5-difluoro-4-((1R,3R)-3-methyl-2-(2,2,2-trifluoroethyl)-2,3,4,9-tetrahydro-1H-pyrido[3,4-b]indol-1-yl)phenyl)(1-(3-fluoropropyl)azetidin-3-yl)methanol], the “ER-alpha MCF7 HCS (S inf)” value in assay [1] is on record as −98.1%. In the assay with MCF7 cells, the EC50 was 0.23 nM.
In the same order, the values of `C[C@@H]1Cc2c([nH]c3ccccc23)[C@@H](c2c(F)cc(C(O)C3CN(CCCF)C3)cc2F)N1CC(F)F` (stereo partly shown) [Compound 110] are −98.4% and 0.082 nM.
For `C[C@@H]1Cc2c([nH]c3ccccc23)[C@@H](c2c(F)cc([C@H](O)C3CN(CCCF)C3)cc2F)N1CC(C)(C)F` [Compound 111, (R)-(3,5-difluoro-4-((1R,3R)-2-(2-fluoro-2-methylpropyl)-3-methyl-2,3,4,9-tetrahydro-1H-pyrido[3,4-b]indol-1-yl)phenyl)(1-(3-fluoropropyl)azetidin-3-yl)methanol], in assay [1], the “ER-alpha MCF7 HCS (S inf)” value is reported as −95.97%. Besides, in the assay on MCF7 cells, the concentration giving a half-maximal response (EC50) was 0.066 nM.
`C[C@@H]1Cc2c([nH]c3ccccc23)[C@@H](c2c(F)cc([C@@H](O)C3CN(CCCF)C3)cc2F)N1CC(C)(C)F` [Compound 112, (S)-(3,5-difluoro-4-((1R,3R)-2-(2-fluoro-2-methylpropyl)-3-methyl-2,3,4,9-tetrahydro-1H-pyrido[3,4-b]indol-1-yl)phenyl)(1-(3-fluoropropyl)azetidin-3-yl)methanol]: the “ER-alpha MCF7 HCS (S inf)” value in assay [1] is reported as −99.15%. Besides, the EC50 in the assay with MCF7 cells was determined as 0.05 nM.
